The target in one experiment is T1, Son of Sevenless (SOS) (Homo sapiens, UniProt Q07889).
T1 sequence (Q07889 564-1049 limits assumed): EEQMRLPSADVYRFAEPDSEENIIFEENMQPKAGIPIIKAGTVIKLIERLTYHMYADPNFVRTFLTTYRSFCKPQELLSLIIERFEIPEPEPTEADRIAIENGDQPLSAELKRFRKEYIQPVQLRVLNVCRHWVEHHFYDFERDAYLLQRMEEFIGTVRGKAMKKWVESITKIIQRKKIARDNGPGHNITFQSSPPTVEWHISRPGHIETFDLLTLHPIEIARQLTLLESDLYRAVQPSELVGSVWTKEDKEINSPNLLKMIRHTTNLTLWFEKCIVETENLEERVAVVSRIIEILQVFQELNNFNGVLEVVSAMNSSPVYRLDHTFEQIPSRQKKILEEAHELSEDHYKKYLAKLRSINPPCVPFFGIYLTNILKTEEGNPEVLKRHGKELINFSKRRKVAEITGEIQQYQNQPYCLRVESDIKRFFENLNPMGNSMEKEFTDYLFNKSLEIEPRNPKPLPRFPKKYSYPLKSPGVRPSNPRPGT
Nature of the experiment: Binding to SOS, fluorescence polarization anisotropy (FPA) probe displacement. As to conditions: displacement of FITC-conjugated probe (Example 285), affinity calculated from IC50. As for the experimental part:
Compounds of the present invention were tested for their ability to bind to the Ras guanine exchange factor (GEF) Son of Sevenless (SOS). Binding to SOS was measured using a Fluorescence polarization anisotropy (FPA) assay that assesses the ability of a test compound to displace a fluorescent FITC-conjugated compound (Example 285). Briefly, the labeled probe compound is incubated with SOS in buffer. Changes in anisotropy indicative of displacement of the labeled probe for a test compound are assessed over a dose range of test compound. Data was analyzed by plotting fluorescence anisotropy values as a function of compound concentration. IC50 values were determined using a four-parameter dose-response (variable slope) and binding affinities were calculated from this IC50 value. This assay is performed in a method analogous to the assay disclosed in: Burns, M. C.; Sun, Q.; Daniels, R. N.; Camper, D. V.; Kennedy, J. P.; Phan, J.; Olejniczak, E. O.; Lee, T.; Waterson, A. G.; Rossanese, O. W.; Fesik, S. W. “Approach for targeting Ras with small molecules that activate SOS-mediated nucleotide exchange” Proc. Natl. Acad. Sci. 2014; 11(9): 3401-3406. PMCID: PMC3948241.

Experiment [1] concerns the target Ras GEF SOS (Son of Sevenless) (Homo sapiens, UniProt Q07889). Nature of the experiment: SOS-mediated nucleotide exchange on Ras (BODIPY-GDP fluorescence). The experiment is classed as biochemical. As to conditions: SOS-mediated exchange of BODIPY-GDP for GTP on Ras. How it is done:
Compounds of the present invention were tested for their ability to modify the rate at which Ras exchanges a labeled nucleotide guanosine diphosphate (GDP) analog for guanosine triphosphate (GTP). Briefly, test compounds, then GTP and the Ras GEF SOS (Son of Sevenless) are added to a buffered solution containing Ras protein loaded with BODIPY-GDP. Changes in fluoresence indicating exchange of the labeled GDP for GTP are monitored over time. Raw fluorescence data was fit to a single exponential decay function and derived rates were plotted as mean values. EC50 values were calculated by plotting mean derived rates as a function of compound concentration and fit using a four-parameter dose-response curve. This assay is performed in a method analogous to the assay disclosed in: Burns, M. C.; Sun, Q.; Daniels, R. N.; Camper, D. V.; Kennedy, J. P.; Phan, J.; Olejniczak, E. O.; Lee, T.; Waterson, A. G.; Rossanese, O. W.; Fesik, S. W. “Approach for targeting Ras with small molecules that activate SOS-mediated nucleotide exchange” Proc. Natl. Acad. Sci. 2014; 11(9): 3401-3406. PMCID: PMC3948241.

Each structure is given as a SMILES string. Where a name gives a salt, the structure may show the parent alone.

Chain of Ras GEF SOS (Son of Sevenless) (P01112 1-166 partner limits assumed, one chain of several): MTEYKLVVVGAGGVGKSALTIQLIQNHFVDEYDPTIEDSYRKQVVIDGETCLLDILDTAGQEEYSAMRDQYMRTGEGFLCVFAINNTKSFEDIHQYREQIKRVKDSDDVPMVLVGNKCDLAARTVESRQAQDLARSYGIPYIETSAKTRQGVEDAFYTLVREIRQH

One may read the Ki as a dissociation constant, usually derived from enzyme kinetics or from competition with a known ligand. `COC(=O)c1cnn(CC(C)C)c1-c1cc(C)cc2c1nc(N1CCNCC1)n2Cc1ccc(F)c(Cl)c1` [Example 179, methyl 5-(1-(3-chloro-4-fluorobenzyl)-6-methyl-2-(piperazin-1-yl)-1H-benzo[d]imidazol-4-yl)-1-isobutyl-1H-pyrazole-4-carboxylate]: the Ki at Son of Sevenless (SOS) is 500 to 1000 nM.

In the case of `Cc1cc2nc(N3C[C@@H](C)N[C@@H](C)C3)n(Cc3cc(C)c(F)c(C)c3)c2cc1C` [Example 336, 2-((3S,5R)-3,5-dimethylpiperazin-1-yl)-1-(4-fluoro-3,5-dimethylbenzyl)-5,6-dimethyl-1H-benzo[d]imidazole], the Ki on Son of Sevenless (SOS) is 1000 to 5000 nM.

For `Cc1cc2nc(S(=O)(=O)CCN)n(Cc3ccc(F)c(Cl)c3)c2cc1C` [Example 211, 2-((1-(3-chloro-4-fluorobenzyl)-5,6-dimethyl-1H-benzo[d]imidazol-2-yl)sulfonyl)ethan-1-amine trifluoroacetate], on Son of Sevenless (SOS), the Ki was greater than 5000 nM.

With `CCCNC(=O)c1cnn(CC(C)C)c1-c1cc(C)cc2c1nc(N1CCNCC1)n2Cc1cc(C)c(F)c(C)c1` [Example 181, 5-(1-(4-fluoro-3,5-dimethylbenzyl)-6-methyl-2-(piperazin-1-yl)-1H-benzo[d]imidazol-4-yl)-1-isobutyl-N-propyl-1H-pyrazole-4-carboxamide trifluoroacetate], on Son of Sevenless (SOS), the Ki is 500 to 1000 nM.

Consider `Cc1cc(N2CCN(C(C)C)CC2)c2nc(N3CCNCC3)n(Cc3cc(C)c(F)c(C)c3)c2c1` [Example 194, 1-(4-fluoro-3,5-dimethylbenzyl)-4-(4-isopropylpiperazin-1-yl)-6-methyl-2-(piperazin-1-yl)-1H-benzo[d]imidazole trifluoroacetate], for which the Ki at Son of Sevenless (SOS) is 500 to 1000 nM.

On to `Cc1cc(O[C@H]2CCNC2)c2nc(N3CCNCC3)n(Cc3cc(C)c(F)c(C)c3)c2c1` [Example 200, (S)-1-(4-fluoro-3,5-dimethylbenzyl)-6-methyl-2-(piperazin-1-yl)-4-(pyrrolidin-3-yloxy)-1H-benzo[d]imidazole], for which the Ki at Son of Sevenless (SOS) is greater than 5000 nM.

One may read the EC50 as the midpoint of the concentration-response curve. A lower EC50 goes with greater potency. `COc1ccccc1C#Cc1ccccc1-c1cc(Cl)cc2c1nc(N1CCNCC1)n2Cc1cc(C)c(F)c(C)c1` [Example 186, 6-chloro-1-(4-fluoro-3,5-dimethylbenzyl)-4-(2-((2-methoxyphenyl)ethynyl)phenyl)-2-(piperazin-1-yl)-1H-benzo[d]imidazole trifluoroacetate] had an EC50 in experiment [1] of 5 to 30 µM.

In experiment [1], `Fc1ccc(Cn2c(N3CCOCC3)nc3ccccc32)cc1` [Example 9, 4-(1-(4-fluorobenzyl)-1H-benzo[d]imidazol-2-yl)morpholine] showed an EC50 of 30 to 100 µM.

In experiment [1], `Cc1cc(Cn2c(NCCN)nc3c(O)cccc32)ccc1F` [Example 295, 2-((2-aminoethyl)amino)-1-(4-fluoro-3-methylbenzyl)-1H-benzo[d]imidazol-4-ol] showed an EC50 of 5 to 30 µM.

In experiment [1], `Cc1cc2c(nc(NCCN)n2Cc2cccc(C#N)c2)c(-c2ccccc2Cl)c1C` [Example 117, 3-((2-((2-aminoethyl)amino)-4-(2-chlorophenyl)-5,6-dimethyl-1H-benzo[d]imidazol-1-yl)methyl)benzonitrile trifluoroacetate] displayed an EC50 of 1 to 5 µM.

For the compound `Cc1cc2nc(NCCN3CCOCC3)n(Cc3ccc(F)cc3)c2cc1C` [Example 29, 1-(4-fluorobenzyl)-5,6-dimethyl-N-(2-morpholinoethyl)-1H-benzo[d]imidazol-2-amine trifluoroacetate], the EC50 in experiment [1] was 30 to 100 µM.

With `NCCc1cccc2c1nc(N1CCNCC1)n2Cc1ccc(C(F)(F)F)cc1` [Example 100, 2-(2-(piperazin-1-yl)-1-(4-(trifluoromethyl)benzyl)-1H-benzo[d]imidazol-4-yl)ethan-1-amine trifluoroacetate], the 50% effective concentration (EC50) in experiment [1] lay in the range of 1 to 5 µM.

Compound `Cc1cc2nc(N)n(Cc3ccc(Cl)cc3)c2cc1C` [Example 5, 1-(4-chlorobenzyl)-5,6-dimethyl-1H-benzo[d]imidazol-2-amine] displayed an EC50 in experiment [1] of 30 to 100 µM.

In experiment [1], `Cc1cc2nc(C3CCNCC3)n(Cc3ccc(F)c(Cl)c3)c2cc1C` [Example 59, 1-(3-chloro-4-fluorobenzyl)-5,6-dimethyl-2-(piperidin-4-yl)-1H-benzo[d]imidazazole trifluoroacetate] registered an EC50 of 5 to 30 µM.

Consider `Cc1cc(Cn2c(NC3CCNC3)nc3c(-c4ccccc4)nccc32)ccc1F` (stereo not shown) [Example 222, 1-(4-fluoro-3-methylbenzyl)-4-phenyl-N-(pyrrolidin-3-yl)-1H-imidazo[4,5-c]pyridin-2-amine], for which the EC50 in experiment [1] fell in the range of 5 to 30 µM.

`NCCNc1nc2ccccc2n1Cc1ccc(Cl)cc1` [Example 12, N^1-(1-(4-chlorobenzyl)-1H-benzo[d]imidazol-2-yl)ethane-1,2-diamine trifluoroacetate]: the EC50 in experiment [1] was 5 to 30 µM.

As for `Cc1cnc2nc(N3CCNCC3)n(Cc3ccc(F)c(Cl)c3)c2c1` [Example 242, 1-(3-chloro-4-fluorobenzyl)-6-methyl-2-(piperazin-1-yl)-1H-imidazo[4,5-b]pyridine], the EC50 in experiment [1] lay in the range of 1 to 5 µM.

As to `Fc1cc(F)cc(Cn2c(C3CCNCC3)nc3ccccc32)c1` [Example 57, 1-(3,5-difluorobenzyl)-2-(piperidin-4-yl)-1H-benzo[d]imidazole trifluoroacetate], in experiment [1], the EC50 fell in the range of 5 to 30 µM.

The compound `Cc1cc2c(nc(N3CCNCC3)n2Cc2ccc(F)c(C)c2)c(CN2CCCC2)n1` [Example 236, 1-(4-fluoro-3-methylbenzyl)-6-methyl-2-(piperazin-1-yl)-4-(pyrrolidin-1-ylmethyl)-1H-imidazo[4,5-c]pyridine] returned an EC50 in experiment [1] of 30 to 100 µM.

Take `Cc1ccc2nc(NCCN)n(Cc3ccc(F)c(Cl)c3)c2c1` [Example 60, N^1-(1-(3-chloro-4-fluorobenzyl)-6-methyl-1H-benzo[d]imidazol-2-yl)ethane-1,2-diamine trifluoroacetate]: the EC50 in experiment [1] was in the range of 1 to 5 µM.

In experiment [1], `Cc1cc2c(nc(NCCN)n2Cc2ccc(F)c(Cl)c2)c(CN2CCCC2)c1C` [Example 146, N^1-(1-(3-chloro-4-fluorobenzyl)-5,6-dimethyl-4-(pyrrolidin-1-ylmethyl)-1H-benzo[d]imidazol-2-yl)ethane-1,2-diamine trifluoroacetate] yielded an EC50 of 1 to 5 µM.

The compound `Cc1ccc2c(n1)nc(NCCN)n2Cc1ccc(F)c(Cl)c1` [Example 257, N^1-(1-(3-chloro-4-fluorobenzyl)-5-methyl-1H-imidazo[4,5-b]pyridin-2-yl)ethane-1,2-diamine] showed an EC50 in experiment [1] of 5 to 30 µM.

In turn, `Cc1cc2nc(N3CCNCC3)n(Cc3cccc(C(F)(F)F)c3)c2cc1C` [Example 32, 5,6-dimethyl-2-(piperazin-1-yl)-1-(3-(trifluoromethyl)benzyl)-1H-benzo[d]imidazole trifluoroacetate] had an EC50 in experiment [1] of 5 to 30 µM.

`C=Cc1nc(C)cc2c1nc(N1CCNCC1)n2Cc1ccc(F)c(C)c1` [Example 239, 1-(4-fluoro-3-methylbenzyl)-6-methyl-2-(piperazin-1-yl)-4-vinyl-1H-imidazo[4,5-c]pyridine]: the EC50 in experiment [1] was in the range of 30 to 100 µM.

In the case of `Clc1ccc(Cn2c(Cl)nc3ncccc32)cc1` [Example 254, 2-chloro-1-(4-chlorobenzyl)-1H-imidazo[4,5-b]pyridine], in experiment [1], the EC50 fell in the range of 30 to 100 µM.

Turning to `Fc1ccc(Cn2c(N3CCNCC3)nc3ccc(C(F)(F)F)cc32)cc1Cl` [Example 71, 1-(3-chloro-4-fluorobenzyl)-2-(piperazin-1-yl)-6-(trifluoromethyl)-1H-benzo[d]imidazole trifluoroacetate], in experiment [1], the EC50 is 1 to 5 µM.

As to `NCc1ccc2c(c1)nc(N1CCNCC1)n2Cc1ccc(F)c(Cl)c1` [Example 281, [1-[(3-chloro-4-fluorophenyl)methyl]-2-piperazin-1-ylbenzimidazol-5-yl]methanamine], in experiment [1], the EC50 lay in the range of 5 to 30 µM.

`Fc1cc(F)cc(Cn2c(N3CCOCC3)nc3ccccc32)c1` [Example 13, 4-(1-(3,5-difluorobenzyl)-1H-benzo[d]imidazol-2-yl)morpholine] had an EC50 in experiment [1] of 30 to 100 µM.

Source of the values: US10501421B1, “Substituted benzimidazoles as modulators of Ras signaling” (VANDERBILT UNIVERSITY, priority 2017, dated 2019).
